This is an account of results in patent publication US5468754A, “11,7 substituted camptothecin derivatives and formulations of 11,7 substituted camptothecin derivatives and methods for uses thereof” (priority 1994, dated 1995).

One data set is described as follows: Solubility in DMA or DMI. It counts as physicochemical. The conditions noted are these: organic solvent or mixture, in presence of pharmaceutically acceptable acid. As to the method:
Yet another embodiment of this invention for oral administration to a patient with cancer is 11,7-HECPT or 11,7-HMCPT dissolved in dimethylisosorbide (DMI) or dimethylacetamide (DMA) in the presence of a pharmaceutically acceptable acid. More specifically, approximately 10 mg of 11,7-HECPT or 11,7-HMCPT can be dissolved in each milliliter of DMA. However, only approximately 5.0 mg of 11,7-HECPT or 11,7-HMCPT can be dissolved in each milliliter of DMI.

The conditions of data set [1]: cited from earlier work.
For data set [2] the following is noted: compared with parent compound camptothecin; cited from earlier work.
Another data set has as its system topoisomerase I. To be noted: cited from earlier work.
For data set [3] the following is noted: cited from earlier work. This is another data set of the same source.
Another data set has as its system MOLT3 cells. The conditions noted are these: more potent than CPT-11; cited from earlier work.
The test system of the next data set is P388 tumor. The conditions noted are these: intermittent bolus (days 1, 5, and 9), intraperitoneal; mice; cited from earlier work.
Data set [4] deals with Topoisomerase I, purified from calf thymus. To be noted: cited from earlier work.
For data set [5] the following is noted: in vivo; cited from earlier work.
For data set [6] the following is noted: above 30 mg/m^2/d CPT-11, 5 day continuous infusion; cited from earlier work.
Data set [7] relates to topoisomerase I enzyme of P388 cells. The conditions noted are these: greater than CPT-11; cited from earlier work.
Data set [8] deals with Topoisomerase I, purified from human colon carcinoma cells. The conditions noted are these: cited from earlier work.
For data set [9] the following is noted: Kaneda et al.; cited from earlier work.
The conditions of data set [10]: cited from earlier work. The source holds these as a separate data set.
For data set [11] the following is noted: more toxic than sodium camptothecin, mice; cited from earlier work.
In the next data set the test system is L1210 cells. The conditions noted are these: cited from earlier work.
The conditions of data set [12]: similar form; vs intravenous administration (U.S. Pat. No. 4,713,246); cited from earlier work.
Where [13] appears, read: dimethylacetamide, read-out: solubility in DMA.
Setting [14] is: dimethylisosorbide, read-out: solubility in DMI.

Where two headings read alike, the source gives them in different places.

For the molecule `CCc1c2c(nc3cc(O)ccc13)-c1cc3c(c(=O)n1C2)COC(=O)[C@]3(O)CC` [11,7-HECPT, 11-hydroxy-7-ethyl camptothecin], the figures for the solubility in “Solubility in DMA or DMI” (setting [13]) and in “Solubility in DMA or DMI” (setting [14]) were approximately 10000 µg/mL and approximately 5000 µg/mL, respectively. Further, the antitumor activity result in data set [1] (previously demonstrated) is listed as “previously demonstrated antitumor activity”.

Turning to `CC[C@@]1(O)C(=O)OCc2c1cc1n(c2=O)Cc2cc3c(CN(C)C)c(O)ccc3nc2-1` [topotecan], the Toxicity entry in [2] was “less sporadic toxicities”. In addition, the “Topo I inhibition” value with topoisomerase I was “Topo I inhibitor”. Moreover, in data set [1] (compared with parent compound camptothecin), the antitumor activity result is given as “retain the significant antitumor activity of the parent compound”.

Take `CC[C@@]1(O)C(=O)OCc2c1cc1n(c2=O)Cc2cc3cc4c(cc3nc2-1)OCO4` [10,11-methylene dioxycamptothecin]: the water solubility entry in [3] is “relatively insoluble in water”. In addition, in data set [1] (preclinical studies), the “activity in preclinical studies” value is “very active in preclinical studies”.

For the molecule `CC[C@@]1(O)C(=O)OCc2c1cc1n(c2=O)Cc2cc3ccc(O)cc3nc2-1` [11-HCPT, 11-hydroxy camptothecin], the antitumor activity entry in data set [1] (previously demonstrated) is on record as “previously demonstrated antitumor activity”.

Turning to `CC[C@@]1(O)C(=O)OCc2c1cc1n(c2=O)Cc2c-1nc1cc(O)ccc1c2OC` [11,7-HMCPT, 11-hydroxy-7-methoxy camptothecin], the solubility in “Solubility in DMA or DMI” (setting [13]) is approximately 10000 µg/mL; in “Solubility in DMA or DMI” (setting [14]) it was approximately 5000 µg/mL. Also, the water solubility entry in data set [3] is “poor water solubility”. Moreover, in data set [1] (previously demonstrated), the antitumor activity entry is recorded as “previously demonstrated antitumor activity”.

Consider `CCc1c2c(nc3ccc(O)cc13)-c1cc3c(c(=O)n1C2)COC(=O)[C@]3(O)CC` [SN38, 10-hydroxy-7-ethyl camptothecin], for which, in the data set on MOLT3 cells, the “potency in generating single-strand DNA breaks relative to CPT-11” value is recorded as “approximately 1000 -fold”. In the data set with P388 tumor, the “anti-tumor activity compared to CPT-11 in vivo” value is listed as “little anti-tumor activity compared to CPT-11”. The “inhibition of Topoisomerase I” value in data set [4] and in [8] was “inhibited” throughout. Besides, in data set [5], the “overall fractional concentration of the lactone species” value was “fairly constant through a range of doses”. The “CpMax of SN38 on increasing CPT-11 dose” value in data set [6] was “decrease in the CpMax of SN38”. Further, the “inhibitory activity against topoisomerase I relative to CPT-11” value in data set [7] is recorded as 3600 -fold. For the same molecule, in [3], the water solubility entry is given as “poorly soluble in water”. Also, the “plasma concentration of SN38 in mice” value in data set [9] was “maintained longer after CPT-11 administration than after treatment with SN38”.

Regarding `CC[C@@](O)(C(=O)O)c1cc2n(c(=O)c1CO)Cc1cc3ccccc3nc1-2` [sodium camptothecin], in data set [10] (sodium camptothecin, Phase II studies), the Toxicity result was “unpredictable and severe myelosuppression, gastrointestinal toxicity, hemorrhagic cystitis, and alopecia”. Besides, in data set [10] (sodium camptothecin, clinical trials), the antitumor activity entry is “lack of significant anti-tumor activity”.

As for `CC[C@@]1(O)C(=O)OCc2c1cc1n(c2=O)Cc2cc3ccccc3nc2-1` [Camptothecin, camptothecin], the “toxicity of lactone form relative to sodium camptothecin” value in [11] is on record as 10 -fold. In addition, the “stabilization of the cleavable complex” value in the data set on topoisomerase I (closed lactone vs non-lactone form) is “only the closed lactone form of camptothecin helps stabilize the cleavable complex”. In addition, the “inhibition of Topoisomerase I” value in data set [4] and in data set [8] was “inhibited” each time. Also, the Toxicity result in [10] (camptothecin, Phase I trials, early 1970's) is “unpredictable myelosuppression and hemorrhagic cystitis”. For the same molecule, in [10] (camptothecin, Phase I trials), the antitumor activity result is “some antitumor activity”. Moreover, the water solubility entry in data set [3] is on record as “highly water insoluble”. Also, the “DNA strand breaks in L1210 cells” value in the data set with L1210 cells was “an increase in unexplained protein-free breaks”.

Take `COc1cc([C@@H]2c3cc4c(cc3[C@@H](O[C@@H]3O[C@@H]5CO[C@@H](C)O[C@H]5[C@H](O)[C@H]3O)[C@H]3COC(=O)[C@H]23)OCO4)cc(OC)c1O` [etoposide]: the “bioavailability following oral administration” value in data set [12] was “substantially equivalent to that achieved by intravenous administration”.
